In ChEMBL document CHEMBL2203035, “Synthesis and docking studies of novel antitumor benzimidazoles” (Bioorg Med Chem, 2012):

What was measured:
Raji [1] = experiment: Inhibition of tumor promotion in human Raji cells assessed as TPA-induced Epstein-Barr virus early antigen activation at 500 mol ratio/TPA after 48 hrs by indirect immunofluorescence analysis relative to TPA alone; type: functional; set-up: scale not given: the % may be the effect or the level left
Raji [2] = experiment: Inhibition of tumor promotion in human Raji cells assessed as TPA-induced Epstein-Barr virus early antigen activation at 100 mol ratio/TPA after 48 hrs by indirect immunofluorescence analysis relative to TPA alone; type: functional; set-up: scale not given: the % may be the effect or the level left
A549 [3] = experiment: Cytotoxicity against human A549 cells after 72 hrs by alamar blue assay; type: functional, cell-based; settings: A549, 72 h
Raji [4] = experiment: Inhibition of tumor promotion in human Raji cells assessed as TPA-induced Epstein-Barr virus early antigen activation at 10 mol ratio/TPA after 48 hrs by indirect immunofluorescence analysis relative to TPA alone; type: functional; set-up: scale not given: the % may be the effect or the level left
[5] = molecular target: Urokinase plasminogen activator surface receptor (Homo sapiens, UniProt Q03405); experiment: Binding affinity to uPAR
Urokinase plasminogen activator surface receptor, sequence (Q03405 whole entry): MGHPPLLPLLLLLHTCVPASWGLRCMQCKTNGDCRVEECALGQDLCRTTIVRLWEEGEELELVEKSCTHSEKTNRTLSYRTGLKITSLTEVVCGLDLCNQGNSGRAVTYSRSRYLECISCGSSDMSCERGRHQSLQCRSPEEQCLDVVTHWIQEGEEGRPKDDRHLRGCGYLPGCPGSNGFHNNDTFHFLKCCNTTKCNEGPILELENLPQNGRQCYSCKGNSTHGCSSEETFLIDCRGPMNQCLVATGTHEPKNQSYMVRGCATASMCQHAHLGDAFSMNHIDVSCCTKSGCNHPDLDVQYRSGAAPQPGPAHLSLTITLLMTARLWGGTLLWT

Raji [6] = experiment: Inhibition of tumor promotion in human Raji cells assessed as TPA-induced Epstein-Barr virus early antigen activation at 1000 mol ratio/TPA after 48 hrs by indirect immunofluorescence analysis relative to TPA alone; type: functional; set-up: scale not given: the % may be the effect or the level left
MCF7 [7] = experiment: cells; settings: Homo sapiens, MCF7, 48 h
Description: Cytotoxicity against human MCF7 cells after 48 hrs by sulforhodamine B assay

A549 [8] = experiment: Downregulation of uPA protein expression in human A549 cell extract at 1.70 uM after 48 hrs by ELISA; type: functional
MCF7 [9] = experiment: Downregulation of uPA protein expression in human MCF7 cell extract at 0.084 ug/well after 48 hrs by ELISA (reference value: 1 1.4000 +/- 1.40 ng/ml)
MCF7 [10] = experiment: Downregulation of uPA protein expression in human MCF7 cell extract at 0.335 ug/well after 48 hrs by ELISA (reference value: 1 1.4000 +/- 1.40 ng/ml)
A549 [11] = experiment: Downregulation of uPA protein expression in human A549 cell extract at 1.70 uM after 48 hrs by ELISA (reference value: 11.0000 +/-1.60 ng/ml); type: functional
A549 [12] = experiment: Downregulation of uPA protein expression in human A549 cell extract at 3.40 uM after 48 hrs by ELISA (reference value: 11.0000 +/-1.60 ng/ml); type: functional
MCF7 [13] = experiment: Downregulation of uPA protein expression in human MCF7 cell extract at 0.67 uM after 48 hrs by ELISA (reference value: 1 1.4000 +/- 1.40 ng/ml); type: functional
A549 [14] = experiment: Downregulation of uPA protein expression in human A549 cell extract at 0.85 uM after 48 hrs by ELISA (reference value: 11.0000 +/-1.60 ng/ml); type: functional
MCF7 [15] = experiment: Downregulation of uPA protein expression in human MCF7 cell extract at 0.335 uM after 48 hrs by ELISA; type: functional
MCF7 [16] = experiment: Downregulation of uPA protein expression in human MCF7 cell extract at 0.084 uM after 48 hrs by ELISA; type: functional
A549 [17] = experiment: Downregulation of uPA protein expression in human A549 cell extract at 0.85 uM after 48 hrs by ELISA; type: functional
A549 [18] = experiment: Downregulation of uPA protein expression in human A549 cell extract at 0.425 uM after 48 hrs by ELISA (reference value: 11.0000 +/-1.60 ng/ml); type: functional
MCF7 [19] = experiment: Downregulation of uPA protein expression in human MCF7 cell extract at 0.67 uM after 48 hrs by ELISA; type: functional
A549 [20] = experiment: Downregulation of uPA protein expression in human A549 cell extract at 0.425 uM after 48 hrs by ELISA; type: functional
MCF7 [21] = experiment: Downregulation of uPA protein expression in human MCF7 cell extract at 0.167 ug/well after 48 hrs by ELISA (reference value: 1 1.4000 +/- 1.40 ng/ml)
A549 [22] = experiment: Downregulation of uPA protein expression in human A549 cell extract at 3.40 uM after 48 hrs by ELISA; type: functional
MCF7 [23] = experiment: Downregulation of uPA protein expression in human MCF7 cell extract at 0.167 uM after 48 hrs by ELISA; type: functional
MCF7 [24] = experiment: Downregulation of uPA protein expression in human MCF7 cell extract at 0.125 uM after 48 hrs by ELISA (reference value: 1 1.4000 +/- 1.40 ng/ml); type: functional
MCF7 [25] = experiment: Downregulation of uPA protein expression in human MCF7 cell extract at 0.25 uM after 48 hrs by ELISA (reference value: 1 1.4000 +/- 1.40 ng/ml); type: functional
A549 [26] = experiment: Downregulation of uPA protein expression in human A549 cell extract at 1.5 uM after 48 hrs by ELISA (reference value: 11.00 +/-1.60 ng/ml); type: functional
A549 [27] = experiment: Downregulation of uPA protein expression in human A549 cell extract at 6 uM after 48 hrs by ELISA (reference value: 11.00 +/-1.60 ng/ml); type: functional
A549 [28] = experiment: Downregulation of uPA protein expression in human A549 cell extract at 3 uM after 48 hrs by ELISA (reference value: 11.00 +/-1.60 ng/ml); type: functional
A549 [29] = experiment: Downregulation of uPA protein expression in human A549 cell extract at 12 uM after 48 hrs by ELISA (reference value: 11.00 +/-1.60 ng/ml); type: functional
MCF7 [30] = experiment: Downregulation of uPA protein expression in human MCF7 cell extract at 0.50 uM after 48 hrs by ELISA (reference value: 1 1.4000 +/- 1.40 ng/ml); type: functional
MCF7 [31] = experiment: Downregulation of uPA protein expression in human MCF7 cell extract at 0.0625 ug/well after 48 hrs by ELISA (reference value: 1 1.4000 +/- 1.40 ng/ml)
MCF7 [32] = experiment: Downregulation of uPA protein expression in human MCF7 cell extract at 0.125 uM after 48 hrs by ELISA; type: functional
MCF7 [33] = experiment: Downregulation of uPA protein expression in human MCF7 cell extract at 0.25 uM after 48 hrs by ELISA; type: functional
MCF7 [34] = experiment: Downregulation of uPA protein expression in human MCF7 cell extract at 0.50 uM after 48 hrs by ELISA; type: functional
MCF7 [35] = experiment: Downregulation of uPA protein expression in human MCF7 cell extract at 0.0625 uM after 48 hrs by ELISA; type: functional

`O=C1NC2=Nc3ccccc3NC2=Nc2ccccc21` gave an Activity (Raji [1]) of 54.6%, an Activity (Raji [2]) of 86.3% and an IC50 (A549 [3]) of 13.2 µM. For the same molecule, the Activity (Raji [4]) was 100%, the Ki [5] was 1330 pM and the Activity (Raji [6]) was 22.6%. The IC50 (MCF7 [7]) was 1.39 µg/well.
Molecule `C=CCn1c(CN2C3=Nc4ccccc4C(=O)NC3=Nc3ccccc32)nc2ccccc21` has an Activity (A549 [8]) of 52%, an Activity (Raji [1]) of 45.8% and an Activity (Raji [2]) of 77.9%. For the same molecule, the IC50 (A549 [3]) was 3.4 µM, the Activity (Raji [4]) was 100% and the Activity (MCF7 [9]) was 8.8 ng/mL. The Activity (MCF7 [10]) was 7 ng/mL, the Activity (A549 [11]) was 5.3 ng/mL and the Ki [5] was 0.288 pM. The Activity (A549 [12]) was 3.8 ng/mL, the Activity (MCF7 [13]) was 4.4 ng/mL and the Activity (A549 [14]) was 6.2 ng/mL. For the same molecule, the Activity (MCF7 [15]) was 39%, the Activity (Raji [6]) was 11.6% and the IC50 (MCF7 [7]) was 0.667 µg/well. The Activity (MCF7 [16]) was 23%, the Activity (A549 [17]) was 44% and the Activity (A549 [18]) was 7.4 ng/mL. For the same molecule, the Activity (MCF7 [19]) was 61%, the Activity (A549 [20]) was 33% and the Activity (MCF7 [21]) was 7.7 ng/mL. The Activity (A549 [22]) was 65% and the Activity (MCF7 [23]) was 33%.
Molecule `N#Cc1cc(-c2ccccc2)n(Cc2nc3ccccc3[nH]2)c1N` has an Activity (MCF7 [24]) of 5.7 ng/mL, an Activity (MCF7 [25]) of 4 ng/mL and an Activity (Raji [1]) of 48.3%. It also gave an Activity (A549 [26]) of 11.6 ng/mL, an Activity (Raji [2]) of 82% and an IC50 (A549 [3]) of 12 µM. It also gave an Activity (A549 [27]) of 9.8 ng/mL, an Activity (Raji [4]) of 100% and an Activity (A549 [28]) of 9.7 ng/mL. It also gave a Ki [5] of 0.589 pM, an Activity (A549 [29]) of 9.2 ng/mL and an Activity (MCF7 [30]) of 2.8 ng/mL. It also gave an Activity (MCF7 [31]) of 7.4 ng/mL, an Activity (MCF7 [32]) of 50% and an Activity (Raji [6]) of 18%. For the same molecule, the Activity (MCF7 [33]) was 65%, the IC50 (MCF7 [7]) was 0.515 µg/well and the Activity (MCF7 [34]) was 75%. For the same molecule, the Activity (MCF7 [35]) was 35%.
